Entries after “also recorded” stand apart in the source; their conditions may differ.
Columns and labels:
pure-HI injured rat pups = experiment: pure-HI (90 min) brain injury in rat pups; format: in vivo
Procedure: (§1) Flow cytometry we used to compare the percentage of CD4+ IL-17A+T-cells at 24 h after LPS, HI (90 min), or LPS+80 min HI brain injury. A longer duration of pure-HI insult was chosen because 80-min HI produced milder brain damage and little neuroinflammation. The TH17/IL-17 activity was compared under pure-HI (90 min) and LPS/HI (80 min) insults that produce similar levels of brain injury. […] The dual LPS/HI insult led to a significant increase to 21% of CD4+ IL-17A+ T-cells, which was reduced to 12% by FTY720 treatment (FIG. 3A).
(§2) Whether (p)FTY720 exerts direct neuroprotection was investigated. The effects of FTY720 on pure-HI (90 min) and LPS-sensitized HI insult (80 min) were compared reasoning that FTY720 should oppose both insults if its benefits are derived primarily from neuronal protection. Of note, because 80 min pure-HI insult caused little brain damage, a longer duration of pure-HI (90 min) we used in this experiment.

[1] = test system: microglia and monocytes in CX3CR1-GFP; CCR2-RFP mice; experiment: ICV injection of LPS in P10 CX3CR1-GFP; CCR2-RFP mice; format: in vivo; details: 24 h after ICV LPS 1 μg; FTY720 1 μg/g
Procedure: In untouched mice, few GFP+ microglial processes extended into the pyramidal cell layer in the hippocampal (CA), and almost no RFP+ monocytes were detected in the brain.
(§3) Experiments herein indicate FTY720 primarily blocks brain influx of leukocytes to prevent LPS/HI-induced neuroinflammation. […] To distinguish between these two scenarios, the effects of FTY720 was tested on the MCP1 induction following cerebral ventricle-injection of LPS, a paradigm of direct microglial activation. […] Intracerebroventricular (ICV) injection of LPS was performed in bitransgenic CX3CR1-GFP; CCR2-RFP mice, in which the microglia and circulating monocytes are marked by the green and red fluorescence protein, respectively. In unchallenged mice, the brains were largely devoid of monocytes and the microglial processes were excluded from the hippocampal pyramidal cell layer.

[2] = test system: microglial activation in P7 rats; experiment: intracerebroventricular (ICV) injection of LPS in P7 rats, model of direct microglial activation; format: in vivo, rat; details: FTY720 1 μg/g IP; LPS 2 μg ICV
Procedure: as §3

[3] = test system: LPS/HI-injured P7 rat pups; experiment: LPS-sensitized HI (LPS/HI) brain injury model in P7 rats; format: in vivo
Procedure: To test whether intrauterine infection accelerates the development of TH17 lymphocytes, the expression of IL-23 receptor (IL-23R) mRNA, a marker of TH17 cells, was compared in aliquots of cord blood mononuclear cells isolated from late preterm neonates (32-36 gestational weeks) with and without histological chorioamnionitis. […] A well-characterized LPS-sensitized HI brain injury model in P7 rats was used to compare the effects of low-dose LPS (0.3 mg/kg, IP), HI, and combined LPS/HI on the expression of IL-23R mRNA in the peripheral blood mononuclear cells.
The effects of FTY720 administration (1 μg/g, IP) after LPS/HI insult in P7 rat pups were examined.
as §1, §2
Magnetic resonance imaging (MRI) and behavioral testing were used to assess both acute and long-term effects of FTY720 treatment in LPS/HI injury. […] Two weeks later, the TBSS-identified at-risk gray and white matter became atrophic or distorted in saline-treated rat pups.

SM826 microglial cells = experiment: LPS-induced activation of immortalized microglia SM826 cells; format: cell-based
Source text: These in-vivo and in-vitro results argued against direct inhibition of microglia by FTY720, which prompted us to examine the expression of S1P receptor isoforms in neonatal rat microglia. […] Thus, the effects of pFTY720 and S1P on LPS-induced expression of IL-23 (a key factor for TH17 cell differentiation), TNFα (Tumor Necrosis Factor-alpha), and iNOS mRNA were compared. […] Finally, the effects of S1P and Tat-NBD, an anti-NFKB peptide, were compared on the intracellular signaling responses to LPS in immortalized microglial cells.

S1PR2 = S1PR2 (Homo sapiens, UniProt O95136); details: Mandala et al., 2002; cited from earlier work
LPS/HI-injured P10 mice = experiment: LPS/HI injury in P10 mice; format: in vivo; details: two doses of 25 mg/kg, 16 h pre- & 1 h post-LPS/HI
Procedure: An experiment was performed to test the effects of SR1001, a small-molecule inhibitor of RORc, in LPS/HI injury in P10 mice.

Sequence of S1PR2 (O95136 whole entry, species assumed): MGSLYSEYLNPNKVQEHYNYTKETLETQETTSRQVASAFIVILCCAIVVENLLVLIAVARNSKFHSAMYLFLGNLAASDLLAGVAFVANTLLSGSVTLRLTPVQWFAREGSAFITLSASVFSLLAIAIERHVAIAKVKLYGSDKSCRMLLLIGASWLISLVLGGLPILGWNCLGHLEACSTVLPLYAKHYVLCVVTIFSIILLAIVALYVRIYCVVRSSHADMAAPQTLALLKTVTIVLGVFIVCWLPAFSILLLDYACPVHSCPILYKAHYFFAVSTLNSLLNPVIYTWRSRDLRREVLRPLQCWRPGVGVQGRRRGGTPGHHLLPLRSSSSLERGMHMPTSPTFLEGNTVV

Compound: CCCCCCCCc1ccc(CCC(N)(CO)CO)cc1 [FTY720, 2-amino-2-[2-(4-octylphenyl)ethyl]propane-1,3-diol]
- HI-induced MMP9 activation in ipsilateral cortical hemisphere (zymogram) (pure-HI injured rat pups; 24 h recovery, pure-HI): failed to prevent
- brain atrophy / injury after pure-HI (pure-HI injured rat pups; pure-HI 90 min, acute FTY720 treatment): failed to prevent; also recorded: ineffective
- worsening of pure-HI brain injury (pure-HI injured rat pups; rat, in vivo): does not impair neonatal development or worsen pure-HI brain injury
- microglial processes in hippocampal pyramidal cell layer and monocytes in the brain [1]: showed intrusion of hypertrophic microglia processes in the hippocampal pyramidal cell layer and a massive influx of monocytes; also recorded: hypertrophic microglial processes extended into the pyramidal cell layer and a large number of monocytes were found in the brain
- induction of MCP1 after ICV injection of LPS [2]: unable to prevent
- LPS/HI-induced MCP1 expression in the brain (ELISA) ([3]; 18-24 h following LPS/HI): markedly reduced; also recorded: significant attenuation
- LPS/HI-induced MCP1 in the plasma (ELISA) ([3]; 18-24 h following LPS/HI): failed to prevent
- post-LPS/HI induction of TSPO mRNA (marker for activated microglia) ([3]; 18-24 h following LPS/HI): markedly reduced
- ribbon-like CD43 immunoreactivity in the ipsilateral choroid plexus ([3]; 4 h after LPS/HI): preserved; also recorded: less pronounced
- IL-23R mRNA levels in peripheral blood mononuclear cells (normalized to actin) ([3]; 4 h after LPS/HI, FTY720 1 μg/g IP): blocked the increase
- influx of CD43+ leukocytes in choroid plexus / ipsilateral subcortical white matter ([3]; 4 h post-LPS/HI): mitigated the influx; also recorded: absence of CD43+ cells; also recorded: not in the contralateral hemisphere or after the FTY720 treatment
- nuclear NF-κB activity (EMSA, brain nuclear extract) ([3]; 4 h recovery from LPS/HI): greatly reduced; also recorded: prevented the high-order DNA-protein complex
- reduction/degradation of cytoplasmic IκBα in the ipsilateral hemisphere ([3]; 4 h recovery from LPS/HI): greatly reduced; also recorded: averted
- BBB permeability (NaF fluorescence / extravasation) ([3]; 24 h after LPS/HI): markedly attenuated; also recorded: significantly reduced
- MMP9 induction/activity in ipsilateral hemisphere (zymogram) ([3]; 24 h after LPS/HI): diminished; also recorded: absence of MMP9 induction
- ADC (apparent diffusion coefficient) signals in the cerebral cortex (MRI) ([3]; 24 h after LPS/HI, vs saline): mitigated; also recorded: significant preservation
- increase of brain MCP1 protein (cytokine array) ([3]; 24 h after LPS/HI, 9.7-fold without treatment): 3 fold
- brain cytoarchitectural distinctions in the ipsilateral hemisphere (MEMRI) ([3]; 24 h post-LPS/HI): preserved
- increased sodium concentration in the ipsilateral hemisphere (sodium MRI) ([3]; 24 h recovery): mitigated
- CD43+ leukocytes in the cortical gray matter ([3]; 24 h recovery after LPS/HI): absent
- accumulation of CD43+ leukocytes in the leptomeningeal space ([3]; 24 h recovery after LPS/HI): prevented the accumulation
- latency to fall on rotarods ([3]; 24 days of age after LPS/HI): near-normal
- brain atrophy ([3]; LPS/HI injury): dose-dependent reduction
- LPS/HI-induced brain Gata3 mRNA ([3]; RT-PCR): not
- LPS/HI-induced brain IL-13 mRNA ([3]; RT-PCR): not
- LPS/HI-induced brain IL-17A mRNA ([3]; RT-PCR): significantly decreased
- LPS/HI-induced brain IL-23 receptor mRNA ([3]; RT-PCR): significantly decreased
- LPS/HI-induced brain RORc mRNA ([3]; RT-PCR): significantly decreased
- LPS/HI-induced brain Tbx21/T-bet mRNA ([3]; RT-PCR): significantly attenuated; also recorded: significantly decreased
- gain in body weight ([3]; by 24 days of age after LPS/HI): near-normal gain
- impairment of neonatal development ([3]; rat, in vivo): does not impair neonatal development
- LPS/HI-induced tissue loss salvaged in the hippocampus and the cerebral cortex ([3]; treatment started within 30 min after injury): > 90%

Compound: CCCCCCCCc1ccc(CCC(N)(CO)COP(=O)(O)O)cc1 (centres unmarked) [phospho-FTY720]
- LPS-induced IL-23 mRNA (SM826 microglial cells): neither phospho-FTY720 nor sphingosine-1-phosphate (S1P) prevented
- LPS-induced COX2 expression (SM826 microglial cells; 2-10 μM, LPS 5 ng/ml): failed to prevent
- LPS-induced iNOS expression (SM826 microglial cells; 2-10 μM, LPS 5 ng/ml): failed to prevent
- microglial activation: LPS-induced expression of IL-23, TNFα and iNOS mRNA (SM826 microglial cells; up to 10 μM): neither pFTY720 nor S1P (up to 10 μM) suppressed
- LPS-mediated induction of IL-1β (SM826 microglial cells; up to 10 μM, LPS 5 ng/ml): failed to attenuate
- LPS-mediated induction of IL-6 (SM826 microglial cells; up to 10 μM, LPS 5 ng/ml): failed to attenuate
- binding affinity to the S1PR2 isoform (S1PR2): lacks binding affinity

Compound: CCCCCCCCCCCCC/C=C/[C@@H](O)[C@@H](N)COP(=O)(O)O [S1P, sphingosine-1-phosphate]
- LPS-induced IL-23 mRNA (SM826 microglial cells): neither phospho-FTY720 nor sphingosine-1-phosphate (S1P) prevented
- LPS-induced IκBα degradation in the cytosol (immunoblot) (SM826 microglial cells; 5, 20 μM, LPS 5 ng/ml, 30 min): no opposing effects; also recorded: lacked this effect
- LPS-induced nuclear accumulation of NFκB/RelA (immunoblot) (SM826 microglial cells; 5, 20 μM, LPS 5 ng/ml, 30 min): no opposing effects; also recorded: lacked this effect
- S1PR1 mRNA (SM826 microglial cells; negative feedback of the signaling pathway): dose-dependent reduction
- microglial activation: LPS-induced expression of IL-23, TNFα and iNOS mRNA (SM826 microglial cells; up to 10 μM): neither pFTY720 nor S1P (up to 10 μM) suppressed

Compound: CC(=O)Nc1nc(C)c(S(=O)(=O)Nc2ccc(C(O)(C(F)(F)F)C(F)(F)F)cc2)s1 [SR1001, N-(5-(N-(4-(1,1,1,3,3,3-hexafluoro-2-hydroxypropan-2-yl)phenyl)sulphamoyl)-4-methylthiazol-2-yl)acetamide]
- brain atrophy (tissue loss) (LPS/HI-injured P10 mice): significantly reduced
- induction of TH17 cells (LPS/HI-injured P10 mice): significantly reduced
- microglial activation/TSPO marker (LPS/HI-injured P10 mice): significantly reduced

From patent US20160317473A1, “METHODS OF TREATING OR PREVENTING BRAIN DAMAGE DUE TO HYPOXIC-ISCHEMIA” (EMORY UNIVERSITY, priority 2014, published 2016)
